Source: patent publication EP0033241A2, “Pharmaceutical compositions for rectal administration” (priority 1980, dated 1981)
Counter-ions that a name gives are not always drawn.

What was measured:
in vivo [1] = assay: in vivo; set-up: species or system SD strain male rats; details: rat
Excerpt: The numeral 25 in the term "POE (25)" designates the average number of added moles of POE.

in vivo [2] = details: rat, im, 50 mg/kg, AUC^°6
[3] = AUC 0 to 4 hours of cefsulodin (sodium) suppositories with polyoxyethylene cholesterol ethers (Experiment Example 4); format: in vivo, rats; details: rat, plasma, 20 mg/kg, rectal suppository 50 mg, 10 % cefsulodin (sodium), Witepsol H-5
Experimental: The anuses were closed with an adhesive agent, and blood samples were taken from the tail veins with time elapsed to determine quantitatively the plasma levels of the compounds having a β-lactam ring by means of the biological assay method.
By incorporating 10 % of cefsulodin (sodium) and 5 % of polyoxyethylene cholesterol ether as shown in Table 5 into Witepsol H-5 used as an excipient, suppositories (50 mg each) were prepared, and administered rectally to rats, in the same manner as in Experiment Example 1, to determine quantitatively the concentration levels of the drug substance in plasma, thereby calculating AUC over the period of 0 to 4 hours. The dosage was 20 mg/Kg.

| Structure (SMILES) | AUC (in vivo [1]; im) | other results |
| --- | --- | --- |
| CC1(C)S[C@@H]2[C@H](NC(=O)[C@H](N)c3ccccc3)C(=O)N2[C@H]1C(=O)O [Ampicillin, ampicillin] | 14800 ng·h/mL | – |
| Cc1nnc(SCC2=C(C(=O)O)N3C(=O)[C@@H](NC(=O)Cn4cnnn4)[C@H]3SC2)s1 [Cefazolin, cefazolin] | 348000 ng·h/mL | – |
| CO/N=C(\C(=O)N[C@@H]1C(=O)N2C(C(=O)O)=C(CSc3nnnn3C)CS[C@H]12)c1csc(N)n1 [Cefmenoxime (1/2HCl), 7β-[2-(2-aminothiazol-4-yl)-[Z]-2-methoxyimino-acetamide]-3-[(1-methyl-1H-tetrazol-5-yl)thiomethyl]-ceph-3-em-4-carboxylate.l/2hydrochloride] | 190000 ng·h/mL | AUC at 6 h (in vivo [2]): 190000 ng·h/mL |
| CN(C)CCn1nnnc1SCC1=C(C(=O)O)N2C(=O)[C@@H](NC(=O)Cc3csc(N)n3)[C@H]2SC1 [Cefotiam, cefotiam] | 38700 ng·h/mL | – |
| NC(=O)c1cc[n+](CC2=C(C(=O)O)N3C(=O)[C@@H](NC(=O)[C@@H](c4ccccc4)S(=O)(=O)[O-])[C@H]3SC2)cc1 [Cefsulodin sodium, 3-(4-carbamoyl-l-pyridinio-methyl)-7β-(D-α-sulfophenylacetamide)-ceph-3-em-4-carboxylate monosodium salt] | 54000 ng·h/mL | AUC(0-t) at 4 h ([3]; 5 % POE (10) cholesterol ether): 30400 ng·h/mL; AUC(0-t) at 4 h ([3]; 5 % POE (20) cholesterol ether): 43000 ng·h/mL; AUC(0-t) at 4 h ([3]; 5 % POE (25) cholesterol ether): 35900 ng·h/mL; AUC(0-t) at 4 h ([3]; 5 % POE (30) cholesterol ether): 37900 ng·h/mL; AUC(0-t) at 4 h ([3]; no polyoxyethylene cholesterol ether (None)): 500 ng·h/mL |
| CO/N=C(\C(=O)N[C@@H]1C(=O)N2C(C(=O)O)=CCS[C@H]12)c1csc(N)n1 [FK-749, cephthizoxime] | 77800 ng·h/mL | – |
| CO/N=C(\C(=O)N[C@@H]1C(=O)N2C(C(=O)O)=C(COC(C)=O)CS[C@H]12)c1csc(N)n1 [HR-756, cefotaxime] | 144000 ng·h/mL | – |
| CC1(C)S[C@@H]2[C@H](/N=C/N3CCCCCC3)C(=O)N2[C@H]1C(=O)O [Mecillinam, 6a-[(hexahydro-lH-azepin-l-yl)-methyleneamino]penicillanic acid.sodium salt] | 105000 ng·h/mL | – |
| CC1(C)S[C@@H]2[C@H](NC(=O)C(c3ccccc3)S(=O)(=O)O)C(=O)N2[C@H]1C(=O)O (stereo partly shown) [Sulbenicillin, sulbenicillin] | 192000 ng·h/mL | AUC (in vivo [1]): 92800 ng·h/mL |
